One test has as its system TNFα. Description: cells. It counts as cell-based, human. The conditions noted are these: Homo sapiens, Monocyte, LPS-stimulated human monocytes, TNFα content; read-out: EC50 TNF.
A further test concerns the target IRAK4 enzyme (Homo sapiens (Human), UniProt Q9NWZ3). The test is described as follows: biochemical. The class given is biochemical. The conditions noted are these: IRAK4 enzyme, TR-FRET (HTRF), 500 μM ATP. (In general: In TR-FRET formats the signal depends on donor and acceptor labels being close together.)

A value given as a limit tells only on which side of the number the result lay.

Sequence of IRAK4 enzyme (Q9NWZ3 whole entry): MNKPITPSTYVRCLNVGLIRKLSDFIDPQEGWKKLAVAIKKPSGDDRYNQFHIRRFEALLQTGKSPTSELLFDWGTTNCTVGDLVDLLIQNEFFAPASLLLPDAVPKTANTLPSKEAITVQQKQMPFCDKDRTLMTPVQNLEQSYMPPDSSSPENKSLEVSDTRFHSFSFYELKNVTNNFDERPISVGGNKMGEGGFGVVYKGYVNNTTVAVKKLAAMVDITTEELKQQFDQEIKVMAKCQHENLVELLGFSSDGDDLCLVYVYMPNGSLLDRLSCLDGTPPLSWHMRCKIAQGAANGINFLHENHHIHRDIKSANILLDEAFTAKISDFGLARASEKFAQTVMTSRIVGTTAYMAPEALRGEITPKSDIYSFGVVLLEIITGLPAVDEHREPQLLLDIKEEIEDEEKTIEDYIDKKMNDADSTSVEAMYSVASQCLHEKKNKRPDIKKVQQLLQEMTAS

For orientation: EC50 means the concentration needed to bring the measured effect to its halfway point. One may read the IC50 as the concentration needed to halve the response being measured. Turning to `CC(C)OC(=O)NC[C@H]1C[C@H](Nc2cc(-c3ccc4cc(C#N)cnn34)ncc2C(=O)NC[C@@H](F)C(C)(C)O)C1` [Example 539, isopropyl (((1R,3r)-3-((2-(3-cyanopyrrolo[1,2-b]pyridazin-7-yl)-5-(((R)-2-fluoro-3-hydroxy-3-methylbutyl)carbamoyl)pyridin-4-yl)amino)cyclo-butyl)methyl)carbamate], the EC50 in the test with TNFα is 12 nM. The same molecule gave an IC50 against IRAK4 enzyme below 1 nM.
Take `CCOC(=O)NC[C@H]1C[C@H](Nc2cc(-c3ccc4cc(C#N)cnn34)ncc2C(=O)NC[C@@H](F)C(C)(C)O)C1` [Example 540, ethyl (((1R,3r)-3-((2-(3-cyanopyrrolo[1,2-b]pyridazin-7-yl)-5-(((R)-2-fluoro-3-hydroxy-3-methylbutyl)carbamoyl)pyridin-4-yl)amino)cyclo-butyl)methyl)carbamate]: the EC50 with TNFα turned out to be 12 nM. The IC50 on IRAK4 enzyme is below 1 nM.
In the same order, the values of `CN(C)C(=O)NC[C@H]1C[C@H](Nc2cc(-c3ccc4cc(C#N)cnn34)ncc2C(=O)NC[C@@H](F)C(C)(C)O)C1` [Example 541, 6-(3-cyanopyrrolo[1,2-b]pyridazin-7-yl)-4-(((1r,3R)-3-((3,3-dimethyl-ureido)methyl)cyclobutyl)amino)-N-((R)-2-fluoro-3-hydroxy-3-methylbutyl) nicotinamide] are 65 nM and below 1 nM.
Consider `CC(C)(O)[C@H](F)CNC(=O)c1cnc(-c2ccc3cc(C#N)cnn23)cc1N[C@H]1C[C@H](CNC(=O)C(F)(F)F)C1` [Example 542, 6-(3-cyanopyrrolo[1,2-b]pyridazin-7-yl)-N—((R)-2-fluoro-3-hydroxy-3-methylbutyl)-4-(((1r,3R)-3-((2,2,2-trifluoroacetamido)methyl)cyclobutyl)amino)nicotinamide], for which the EC50 in the test on TNFα came out at 27 nM. The IC50 on IRAK4 enzyme was below 1 nM.
`COC(=O)C12CCCC(Nc3cc(-c4ccc5cc(C#N)cnn45)ncc3C(=O)NC[C@@H](F)C(C)(C)O)(CC1)CC2` [Example 543, (R)-methyl 5-((2-(3-cyano-pyrrolo[1,2-b]pyridazin-7-yl)-5-((2-fluoro-3-hydroxy-3-methylbutyl)carbamoyl)pyridin-4-yl)amino)bicyclo[3.2.2] nonane-1-carboxylate]: the EC50 with TNFα came to 49 nM. Further, inhibition against IRAK4 enzyme was half-maximal at 2 nM (IC50).
In the same order, the values of `CC(=O)NC[C@H]1C[C@H](Nc2cc(-c3ccc4cc(C#N)cnn34)ncc2C(=O)NC[C@@H](F)C(C)(C)O)C1` [Example 544, 4-(((1r,3R)-3-(acetamidomethyl)cyclobutyl)amino)-6-(3-cyanopyrrolo[1,2-b]pyridazin-7-yl)-N-((R)-2-fluoro-3-hydroxy-3-methylbutyl)nicotinamide] are 81 nM and 1 nM.
In the same order, the values of `COC(=O)NC[C@H]1C[C@H](Nc2cc(-c3ccc4cc(C#N)cnn34)ncc2C(=O)NC[C@@H](F)C(C)(C)O)C1` [Example 545, Methyl (((1R,3r)-3-((2-(3-cyanopyrrolo[1,2-b]pyridazin-7-yl)-5-(((R)-2-fluoro-3-hydroxy-3-methylbutyl)carbamoyl)pyridin-4-yl)amino)cyclobutyl)methyl)carbamate] are 5 nM and below 1 nM.
In the case of `CC(=O)NCC12CC(Nc3cc(-c4ccc5cc(C#N)cnn45)ncc3C(=O)NC[C@@H](F)C(C)(C)O)(C1)C2` [Example 546, (R)-4-((3-(acetamidomethyl)bicyclo[1.1.1]pentan-1-yl)amino)-6-(3-cyano-pyrrolo[1,2-b]pyridazin-7-yl)-N-(2-fluoro-3-hydroxy-3-methylbutyl) nicotinamide], the EC50 in the test with TNFα was determined as 90 nM. Further, the IC50 on IRAK4 enzyme stood at 1 nM.
As for `COC(=O)NCC12CC(Nc3cc(-c4ccc5cc(C#N)cnn45)ncc3C(=O)NC[C@@H](F)C(C)(C)O)(C1)C2` [Example 547, (R)-methyl ((3-((2-(3-cyanopyrrolo[1,2-b]pyridazin-7-yl)-5-((2-fluoro-3-hydroxy-3-methylbutyl)carbamoyl)pyridin-4-yl)amino)bicyclo[1.1.1]pentan-1-yl)methyl)carbamate], the EC50 in the test on TNFα was found to be 28 nM. This molecule also registered a concentration for half-maximal inhibition (IC50) against IRAK4 enzyme below 1 nM.
As to `CC(C)(O)[C@H](F)CNC(=O)c1cnc(-c2ccc3cc(C#N)cnn23)cc1N[C@H]1C[C@H](C(C)(C)O)C1` [Example 548, 6-(3-cyanopyrrolo[1,2-b]pyridazin-7-yl)-N-((R)-2-fluoro-3-hydroxy-3-methylbutyl)-4-(((1r,3R)-3-(2-hydroxypropan-2-yl)cyclobutyl)amino) nicotinamide], the EC50 in the test with TNFα amounted to 22 nM. This molecule also came in with an IC50 against IRAK4 enzyme of 1 nM.
Take `CC(C)(C)OC(=O)NC[C@H]1C[C@H](Nc2cc(-c3ccc4cc(C#N)cnn34)ncc2C(=O)NC[C@@H](F)C(C)(C)O)C1` [Example 549, tert-butyl (((1R,3r)-3-((2-(3-cyanopyrrolo[1,2-b]pyridazin-7-yl)-5-(((R)-2-fluoro-3-hydroxy-3-methylbutyl)carbamoyl)pyridin-4-yl)amino)cyclobutyl)methyl)carbamate]: the EC50 in the test on TNFα was found to be 149 nM. This molecule displayed an IC50 against IRAK4 enzyme of 2 nM.
Regarding `CC(C)(C)OC(=O)NCC12CC(Nc3cc(-c4ccc5cc(C#N)cnn45)ncc3C(=O)NC[C@@H](F)C(C)(C)O)(C1)C2` [Example 550, (R)-tert-butyl ((3-((2-(3-cyanopyrrolo[1,2-b]pyridazin-7-yl)-5-((2-fluoro-3-hydroxy-3-methylbutyl)carbamoyl)pyridin-4-yl)amino)bicyclo[1.1.1]pentan-1-yl)methyl)carbamate], the EC50 in the test with TNFα is 364 nM. The molecule also registered an IC50 against IRAK4 enzyme of 2 nM.
`CC(C)Nc1cc(-c2ccc3cc(C#N)cnn23)ncc1C(=O)NCC(F)(F)CN` [Example 552, N-(3-amino-2,2-difluoro-propyl)-6-(3-cyano-pyrrolo[1,2-b]pyridazin-7-yl)-4-(isopropyl-amino)nicotinamide]: the EC50 with TNFα is 1160 nM. At IRAK4 enzyme, the IC50 came to 7 nM.
Consider `COC(=O)NC(C)(CCNC(=O)c1cnc(-c2ccc3cc(C#N)cnn23)cc1NC(C)C)C(F)F` (stereo not shown) [Example 553, methyl (4-(6-(3-cyano-pyrrolo[1,2-b]pyridazin-7-yl)-4-(isopropylamino)nicotinamido)-1,1-difluoro-2-methylbutan-2-yl)carbamate], for which, in the test with TNFα, the EC50 was 183 nM. Moreover, on IRAK4 enzyme, inhibition was half-maximal at 2 nM (IC50).
On to `CC(C)Nc1cc(-c2ccc3cc(C#N)cnn23)ncc1C(=O)NCC(F)(F)CNC(=O)OC(C)(C)C` [Example 554, tert-butyl (3-(6-(3-cyano-pyrrolo[1,2-b]pyridazin-7-yl)-4-(isopropylamino)nicotinamido)-2,2-difluoropropyl)carbamate], for which, in the test with TNFα, the EC50 amounted to 439 nM. The molecule also came in with an IC50 at IRAK4 enzyme of 35 nM.
As to `CC(C)Nc1cc(-c2ccc3cc(C#N)cnn23)ncc1C(=O)NCCC(C)(N)C(F)F` (stereo not shown) [Example 555, N-(3-amino-4,4-difluoro-3-methylbutyl)-6-(3-cyano-pyrrolo[1,2-b]pyridazin-7-yl)-4-(isopropylamino) nicotinamide], the EC50 with TNFα is 95 nM. The molecule further showed an IC50 against IRAK4 enzyme of 1 nM.
In the case of `COC(=O)NC[C@H]1CC[C@H](Nc2cc(-c3ccc4cc(C#N)cnn34)ncc2C(=O)NC[C@@H](F)C(C)(C)O)CC1` [Example 556, methyl (((1R,4r)-4-((2-(3-cyanopyrrolo[1,2-b]pyridazin-7-yl)-5-(((R)-2-fluoro-3-hydroxy-3-methylbutyl)carbamoyl)pyridin-4-yl)amino)cyclo-hexyl)methyl)carbamate], the EC50 in the test on TNFα was determined as 18 nM. Further, inhibition against IRAK4 enzyme was half-maximal at 1 nM (IC50).
For `CC(=O)NC[C@H]1CC[C@H](Nc2cc(-c3ccc4cc(C#N)cnn34)ncc2C(=O)NC[C@@H](F)C(C)(C)O)CC1` [Example 557, 4-(((1r,4R)-4-(acetamidomethyl)cyclo-hexyl)amino)-6-(3-cyano-pyrrolo[1,2-b]pyridazin-7-yl)-N-((R)-2-fluoro-3-hydroxy-3-methylbutyl) nicotinamide], in the test on TNFα, the EC50 stood at 27 nM. Further, the IC50 against IRAK4 enzyme was below 1 nM.
The corresponding values for `CC(C)(O)[C@H](F)CNC(=O)c1cnc(-c2ccc3cc(C#N)cnn23)cc1N[C@H]1CC[C@H](CN)CC1` [Example 558, 4-(((1r,4R)-4-(amino-methyl)cyclohexyl)amino)-6-(3-cyano-pyrrolo[1,2-b]pyridazin-7-yl)-N-((R)-2-fluoro-3-hydroxy-3-methylbutyl) nicotinamide] are 190 nM and below 1 nM.
The corresponding values for `CC(N)(CCNc1cc(-c2ccc3cc(C#N)cnn23)ncc1C(=O)NC[C@@H](F)C(C)(C)O)C(F)F` (stereo partly drawn) [Example 559, 4-((3-amino-4,4-difluoro-3-methylbutyl)amino)-6-(3-cyanopyrrolo[1,2-b]pyridazin-7-yl)-N-((R)-2-fluoro-3-hydroxy-3-methylbutyl)nicotinamide] are 78 nM and 1 nM.
The corresponding values for `CC(C)(O)[C@H](F)CNC(=O)c1cnc(-c2ccc3cc(C#N)cnn23)cc1NC[C@@H](F)C(C)(C)O` [Example 560, 6-(3-cyanopyrrolo[1,2-b]pyridazin-7-yl)-N-((R)-2-fluoro-3-hydroxy-3-methylbutyl)-4-(((R)-2-fluoro-3-hydroxy-3-methylbutyl)amino) nicotinamide] are 83 nM and below 1 nM.
On to `CC(C)Nc1cc(-c2ccc3cc(C#N)cnn23)ncc1C(=O)NCCC(C)(N)C(F)(F)F` (stereo not shown) [Example 561, N-(3-amino-4,4,4-trifluoro-3-methylbutyl)-6-(3-cyano-pyrrolo[1,2-b]pyridazin-7-yl)-4-(isopropylamino) nicotinamide], for which the EC50 in the test with TNFα came to 121 nM. On IRAK4 enzyme, half-maximal inhibition (IC50) required 1 nM.
In the case of `CC(C)(O)[C@H](F)CNC(=O)c1cnc(-c2ccc3cc(C#N)cnn23)cc1NCCC(C)(N)C(F)(F)F` (stereo partly drawn) [Example 562, 4-((3-amino-4,4,4-trifluoro-3-methylbutyl)amino)-6-(3-cyanopyrrolo[1,2-b]pyridazin-7-yl)-N-((R)-2-fluoro-3-hydroxy-3-methylbutyl)nicotinamide], the EC50 in the test with TNFα was 75 nM. Besides, on IRAK4 enzyme, the IC50 was found to be 1 nM.

For the origin of these results see patent publication US10336762B2 (priority 2017, dated 2019).
